Experimental data from paper PMC9564337, “Development of a Neurotensin-Derived ^68Ga-Labeled PET Ligand with High In Vivo Stability for Imaging of NTS1 Receptor-Expressing Tumors” (Cancers, 2022).
Marks after values point to notes of the source that are not given here.

Assays:
[1] = cited from earlier work
[2] = test system: HT-29 tumor-bearing nude mice; experiment: in vivo; conditions: mouse
Experimental: (§1) 8–12 weeks old female NMRI nude (nu/nu) mice (body weight 22–32 g) (Charles River, Sulzfeld, Germany) were kept under specified pathogen free (SPF) conditions at 23 °C, 55% relative humidity and a 12 h light/dark cycle in the central animal facility of the University of Regensburg using type III cages from Tecniplast (Hohenpeißenberg, Germany). The animals took food (Ssniff, Soest, Germay) and autoclaved tap water ad libitum. For tumor cell implantation, the culture medium of HT-29 cells was removed, the cells were detached from the culture flask by incubation for 2 min in trypsin-EDTA and the suspension was centrifuged (5 min, rt, 164 g). The supernatant was removed, and the cell pellet was washed twice with sterile PBS or serum-free medium (5–6 mL). The cells were resuspended in sterile PBS to a final density of 1 × 10^7 cells/mL. Mice were injected subcutaneously into the right flank with the HT-29 cell suspension (100 µL). After 2–4 weeks, when the tumors had reached a size of 50–500 mm^3, animals were used for biodistribution and PET/computed tomography (CT) imaging studies (note: for PET/CT studies, the tumor size was at least 200 mm^3).
(§2) Aliquots of the tracer stock were diluted in PBS to give a volume of 200 µL. 80–100 µL (0.9–5.9 MBq) of this solution were injected into anesthetized HT-29 tumor-bearing nude mice via the tail vein. Animals were kept on a heating plate (set to 40 °C) or a pre-heated (ca. 45 °C) gel cushion and were killed by cardiac puncture 10 min, 25 min or 45 min p.i. immediately followed by taking blood, urine and tissue (i.e., tumor, kidney, liver, gall bladder, spleen, small intestine, heart, lung, brain, pancreas, femur and muscle) samples. Radioactivity measurement of the samples was performed with the Canberra Genie 2000 system described for the determination of the distribution coefficient logD7.4. Decay-corrected measured activities (cpm) were converted into activities (MBq) on the basis of an activity measurement with a ^68Ge-calibration standard source (Eckert&Ziegler, Berlin, Germany). Sample activities were converted to percentage of injected dose per gram tissue (%ID/g). Blocking experiments were performed by co-injection of the tracer with NTS1R ligand 48 (ca. 700 nmol per mouse). Mice were killed 45 min p.i. and analyzed as described above. The animals used for the 45-min biodistribution experiments were the same as used for the PET/CT imaging studies.

[3] = in vivo; conditions: female, NMRI nude (nu/nu), mouse, total radioactivity; for tissue to tissue ratio at 0.75 h: iv, tumor-to-muscle ratio
Experimental: as §1, §2

[4] = physchem; type: physicochemical; conditions: pH 7.4
Experimental: The distribution coefficients logD7.4 of the radiotracers [^68Ga]21, [^68Ga]33, [^68Ga]37 and [^68Ga]56 were determined by adding a solution of the tracer in PBS (100 μL, ca. 0.20–0.34 MBq) to a mixture of n-octanol (500 μL) and PBS (pH 7.4) (400 μL) in a 2-mL HPLC vial (Agilent, article number 5182-0714) with a screw cap equipped with a septum (Agilent, article number 5182-0717). After vortexing the mixture for 2 min, two 100 μL aliquots of the upper phase (n-octanol) were taken. To obtain a sample of the lower phase (PBS), the HPLC vial was held upside down and approximately 100–150 µL of the aqueous phase were removed using a syringe equipped with a canula and collected in a reaction vessel. Two 10 µL aliquots of the aqueous phase were subjected to measurement. The activity of the aliquots was measured with a Canberra Genie 2000 system (Canberra, Rüsselsheim, Germany) using the Gamma Acquisition & Analysis Software Genie 2000 3.4.1. Experiments were performed in triplicate. The decay-corrected counts per minute (cpm) values were averaged (n = 3) and transformed to a distribution coefficient logD7.4 according to logD7.4 = log(Aoctanol/Aaqueous), where Aoctanol is the mean of the decay-corrected cpm values obtained for samples of the n-octanol phase, and Aaqueous is the mean of the decay-corrected cpm values obtained for samples of the aqueous phase.

[5] = Uptake (%ID/g) gall bladder (bile)
[6] = female, NMRI nude (nu/nu), 0.75 h

CC[C@H](C)[C@H](NC(=O)[C@H](Cc1ccc(O)cc1)NC(=O)[C@@H]1CCCN1C(=O)[C@H](CCCNC(=N)N)NC(=O)[C@@H](N)CCCNC(=N)N)C(=O)N[C@@H](CC(C)C)C(=O)O [Compound 1, Arg^8-Arg^9-Pro^10-Tyr^11-Ile^12-Leu^13]
plasma half-life [1]: only a few minutes | % Intact Peptide in Plasma after 10 min ([1]; human plasma, 37 °C, 10 min, ref Schindler et al. [40]): 23 ^d % | % Intact Peptide in Plasma after 1 h ([1]; human plasma, 37 °C, 1 h, ref Schindler et al. [40]): <1 ^d % | % Intact Peptide in Plasma after 24 h ([1]; human plasma, 37 °C, 24 h, ref Schindler et al. [40]): <1 ^d % | % Intact Peptide in Plasma after 48 h ([1]; human plasma, 37 °C, 48 h, ref Schindler et al. [40]): <1 ^d %

CN[C@@H](CCCNC(N)=NC(=O)NCCCCNC(=O)CN1CCN(CC(=O)O)CCN(CC(=O)O)CCN(CC(=O)O)CC1)C(=O)N[C@@H](CCCNC(=N)N)C(=O)N1CCC[C@H]1C(=O)N[C@@H](Cc1ccc(O)cc1)C(=O)N[C@H](C(=O)N[C@@H](CC(C)C)C(=O)O)C(C)(C)C [[^68Ga]21, metal not drawn]
tumor-to-muscle ratio [2]: 9.5 | tissue to tissue ratio at 0.75 h [3]: 9.5 ± 3.7 | tissue uptake at 0.75 h ([3]; Uptake (%ID/g) blood): 0.63 ± 0.2 %ID/g | tissue uptake at 0.75 h [3, 5]: 0.55 ± 0.29 %ID/g | tissue uptake at 0.75 h ([3]; Uptake (%ID/g) kidney): 6 ± 1.9 %ID/g | tissue uptake at 0.75 h ([3]; Uptake (%ID/g) liver): 0.59 ± 0.17 %ID/g | tissue uptake at 0.75 h ([3]; Uptake (%ID/g) muscle): 0.21 ± 0.062 %ID/g | tissue uptake at 0.75 h ([3]; Uptake (%ID/g) tumor): 1.9 ± 0.7 %ID/g | logD [4]: -3.87

CN[C@@H](CCCNC(N)=NC(=O)NCCOCCOCCNC(=O)[C@@H](Cc1ccc(-c2ccc(F)cc2)cc1)NC(=O)CCCCCNC(=O)CN1CCN(CC(=O)O)CCN(CC(=O)O)CCN(CC(=O)O)CC1)C(=O)N[C@@H](CCCNC(=N)N)C(=O)N1CCC[C@H]1C(=O)N[C@@H](Cc1ccc(O)cc1)C(=O)N[C@H](C(=O)N[C@@H](CC(C)C)C(=O)O)C(C)(C)C [[^68Ga]33, metal not drawn]
tumor-to-muscle ratio [2]: 4.1 | tissue to tissue ratio at 0.75 h [3]: 4.1 ± 1.7 | tissue uptake at 0.75 h ([3]; Uptake (%ID/g) blood): 1.3 ± 0.29 %ID/g | tissue uptake at 0.75 h [3, 5]: 2 ± 0.14 %ID/g | tissue uptake at 0.75 h ([3]; Uptake (%ID/g) kidney): 10 ± 0.96 %ID/g | tissue uptake at 0.75 h ([3]; Uptake (%ID/g) liver): 16 ± 2.2 %ID/g | tissue uptake at 0.75 h ([3]; Uptake (%ID/g) muscle): 0.41 ± 0.17 %ID/g | tissue uptake at 0.75 h ([3]; Uptake (%ID/g) tumor): 1.5 ± 0.22 %ID/g | logD [4]: -2.48

CN[C@@H](CCCNC(N)=NC(=O)NCCOCCOCCNC(=O)[C@@H](Cc1ccc(-c2ccc(F)cc2)cc1)NC(=O)CN1CCN(CC(=O)O)CCN(CC(=O)O)CCN(CC(=O)O)CC1)C(=O)N[C@@H](CCCNC(=N)N)C(=O)N1CCC[C@H]1C(=O)N[C@@H](Cc1ccc(O)cc1)C(=O)N[C@H](C(=O)N[C@@H](CC(C)C)C(=O)O)C(C)(C)C [[^68Ga]37, metal not drawn]
tumor-to-muscle ratio [2]: 3.4 | tissue to tissue ratio at 0.75 h [3]: 3.4 ± 0.71 | tissue uptake at 0.75 h [3, 5]: 1.9 ± 0.34 %ID/g | tissue uptake at 0.75 h ([3]; Uptake (%ID/g) kidney): 7.6 ± 0.39 %ID/g | tissue uptake at 0.75 h ([3]; Uptake (%ID/g) liver): 4.1 ± 0.79 %ID/g | tissue uptake at 0.75 h ([3]; Uptake (%ID/g) muscle): 0.5 ± 0.18 %ID/g | tissue uptake at 0.75 h ([3]; Uptake (%ID/g) tumor): 1.6 ± 0.19 %ID/g | logD [4]: -2.59

CC[C@H](C)[C@H](NC(=O)[C@@H](NC(=O)[C@@H]1CCCN1C(=O)[C@H](CCCNC(=N)N)NC(=O)[C@H](CCCNC(N)=NC(=O)NCCCCNC(=O)CN1CCN(CC(=O)O)CCN(CC(=O)O)CCN(CC(=O)O)CC1)NC)C(C)(C)c1ccc(O)cc1)C(=O)N[C@@H](CC(C)C)C(=O)O [[^68Ga]56, metal not drawn]
Uptake (%ID/g) blood [2, 6]: 1.4 ± 1.0 %ID/g | Uptake (%ID/g) brain [2, 6]: 0.10 ± 0.074 %ID/g | Uptake (%ID/g) femur [2, 6]: 0.65 ± 0.43 %ID/g | Uptake (%ID/g) heart [2, 6]: 0.60 ± 0.44 %ID/g | Uptake (%ID/g) kidney [2, 6]: 53 ± 27 %ID/g | Uptake (%ID/g) muscle [2, 6]: 0.68 ± 0.61 %ID/g | Uptake (%ID/g) pancreas [2, 6]: 0.51 ± 0.37 %ID/g | tissue uptake at 10 min ([3]; Uptake (%ID/g) blood): 3.1 ± 0.34 %ID/g | tissue uptake at 25 min ([3]; Uptake (%ID/g) blood): 2.9 ± 1.3 %ID/g | tissue uptake at 0.75 h ([3]; Uptake (%ID/g) blood): 1.3 ± 0.33 %ID/g | tissue uptake at 10 min ([3]; Uptake (%ID/g) brain): 0.079 ± 0.017 %ID/g | tissue uptake at 25 min ([3]; Uptake (%ID/g) brain): 0.13 ± 0.11 %ID/g | tissue uptake at 0.75 h ([3]; Uptake (%ID/g) brain): 0.061 ± 0.049 %ID/g | tissue uptake at 10 min ([3]; Uptake (%ID/g) femur): 0.95 ± 0.25 %ID/g | tissue uptake at 25 min ([3]; Uptake (%ID/g) femur): 0.78 ± 0.27 %ID/g | tissue uptake at 0.75 h ([3]; Uptake (%ID/g) femur): 0.73 ± 0.29 %ID/g | tissue uptake at 10 min [3, 5]: 1.1 ± 0.71 %ID/g | tissue uptake at 25 min [3, 5]: 1.9 ± 0.79 %ID/g | tissue uptake at 10 min ([3]; Uptake (%ID/g) heart): 1.2 ± 0.1 %ID/g | tissue uptake at 25 min ([3]; Uptake (%ID/g) heart): 1.3 ± 0.49 %ID/g | tissue uptake at 0.75 h ([3]; Uptake (%ID/g) heart): 0.72 ± 0.36 %ID/g | tissue uptake at 10 min ([3]; Uptake (%ID/g) intestine): 1.8 ± 0.22 %ID/g | tissue uptake at 25 min ([3]; Uptake (%ID/g) intestine): 2.4 ± 0.68 %ID/g | tissue uptake at 10 min ([3]; Uptake (%ID/g) kidney): 47 ± 3.4 %ID/g | tissue uptake at 25 min ([3]; Uptake (%ID/g) kidney): 47 ± 7 %ID/g | tissue uptake at 0.75 h ([3]; Uptake (%ID/g) kidney): 55 ± 28 %ID/g | tissue uptake at 10 min ([3]; Uptake (%ID/g) liver): 7.2 ± 0.83 %ID/g | tissue uptake at 25 min ([3]; Uptake (%ID/g) liver): 5.7 ± 1.6 %ID/g | tissue uptake at 10 min ([3]; Uptake (%ID/g) lung): 2.4 ± 0.3 %ID/g | tissue uptake at 25 min ([3]; Uptake (%ID/g) lung): 2.8 ± 1.5 %ID/g | tissue uptake at 0.75 h ([3]; Uptake (%ID/g) lung): 1.2 ± 0.34 %ID/g | tissue uptake at 10 min ([3]; Uptake (%ID/g) muscle): 1.1 ± 0.18 %ID/g | tissue uptake at 25 min ([3]; Uptake (%ID/g) muscle): 0.57 ± 0.23 %ID/g | tissue uptake at 0.75 h ([3]; Uptake (%ID/g) muscle): 0.55 ± 0.23 %ID/g | tissue uptake at 10 min ([3]; Uptake (%ID/g) pancreas): 1.3 ± 0.83 %ID/g | tissue uptake at 25 min ([3]; Uptake (%ID/g) pancreas): 1.1 ± 1.1 %ID/g | tissue uptake at 0.75 h ([3]; Uptake (%ID/g) pancreas): 0.9 ± 0.57 %ID/g | tissue uptake at 10 min ([3]; Uptake (%ID/g) spleen): 2.5 ± 0.25 %ID/g | tissue uptake at 25 min ([3]; Uptake (%ID/g) spleen): 2.6 ± 0.6 %ID/g | tissue uptake at 10 min ([3]; Uptake (%ID/g) tumor): 3.6 ± 0.2 %ID/g | tissue uptake at 25 min ([3]; Uptake (%ID/g) tumor): 7.3 ± 1.8 %ID/g | logD [4]: -3.06
